According to US20160009693A1, “HERBICIDAL COMPOUNDS” (SYNGENTA LIMITED, priority 2013, published 2016):

How the values were obtained:
Assay type in all cases: in vivo
Conditions in all cases: evaluated after 13 days
[1] = system: Alopecurus myosuroides (ALOMY); assay: Herbicidal glasshouse test, pre-emergence, ALOMY
Setaria faberi (SETFA) [2] = assay: Herbicidal glasshouse test, pre-emergence, SETFA
[3] = system: Echinochloa crus-galli (ECHCG); assay: Herbicidal glasshouse test, pre-emergence, ECHCG
Summary of the method: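 In this pre-emergence glasshouse test, ECHCG seeds sown in pots of standard soil were sprayed one day after sowing with the test material in acetone/water (50:50) containing 0.5% Tween 20. Plants were kept at 24/16° C., 14 hours light, 65% humidity, and watered twice daily. Percentage damage was rated after 13 days on a 1–5 scale.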

Solanum nigrum (SOLNI) [4] = assay: Herbicidal glasshouse test, pre-emergence, SOLNI
Summary of the method: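 This pre-emergence glasshouse herbicide test used Solanum nigrum sown in standard soil. One day after sowing, pots were sprayed with the compound in acetone/water (50:50) with 0.5% Tween 20. They were then grown at 24/16° C., with 14 hours light and 65% humidity, and watered twice daily. Percentage damage was scored after 13 days on a five point scale, where 5=80-100% and 1=0-19%.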

[5] = system: Amaranthus retoflexus (AMARE); assay: Herbicidal glasshouse test, pre-emergence, AMARE
Summary of the method: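 This pre-emergence glasshouse herbicide test used Amaranthus retoflexus sown in standard soil. After one day of cultivation, an aqueous spray made from the technical ingredient in 50:50 acetone/water with 0.5% Tween 20 was applied. Pots stayed at 24/16° C., 14 hours light, 65% humidity, with twice-daily watering. Damage was rated on a five point scale (1=0-19% up to 5=80-100%).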

[6] = system: Ipomoea hederacea (IPOHE); assay: Herbicidal glasshouse test, pre-emergence, IPOHE
[7] = system: Alopecurus myosuroides (ALOMY); assay: Herbicidal glasshouse test, post-emergence, ALOMY
Setaria faberi (SETFA) [8] = assay: Herbicidal glasshouse test, post-emergence, SETFA
Summary of the method: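 This post-emergence glasshouse herbicide test used potted Setaria faberi. Plants were cultivated for 8 days under controlled conditions (24/16° C. day/night, 14 hours light, 65% humidity) and then treated with an aqueous spray made from an acetone/water (50:50) solution containing 0.5% Tween 20. After 13 days of further growth with twice-daily watering, damage was rated on a five point scale (5=80-100%; 1=0-19%).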

[9] = system: Echinochloa crus-galli (ECHCG); assay: Herbicidal glasshouse test, post-emergence, ECHCG
Summary of the method: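 In this post-emergence glasshouse test, barnyard grass (ECHCG) was cultivated for 8 days under controlled conditions (24/16° C. day/night, 14 hours light, 65% humidity). It was then sprayed with an aqueous solution of the technical compound in acetone / water (50:50) with 0.5% Tween 20. Plants were kept under the same conditions and watered twice daily. After 13 days, percentage damage was rated on a five point scale (5=80-100%; 1=0-19%).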

Solanum nigrum (SOLNI) [10] = assay: Herbicidal glasshouse test, post-emergence, SOLNI
[11] = system: Amaranthus retoflexus (AMARE); assay: Herbicidal glasshouse test, post-emergence, AMARE
Summary of the method: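 This post-emergence glasshouse test used AMARE plants raised in standard soil for 8 days under controlled conditions (24/16° C. day/night, 14 hours light, 65% humidity). Foliage was sprayed with formulated compound in acetone/water (50:50) containing 0.5% Tween 20. Plants were then watered twice daily, and after 13 days percentage damage was rated on a five point scale.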

[12] = system: Ipomoea hederacea (IPOHE); assay: Herbicidal glasshouse test, post-emergence, IPOHE

| Compound | PRE Application ALOMY, percentage damage (five point scale) ([1]; applied at 1000 g/h) | PRE Application SETFA, percentage damage (five point scale) (Setaria faberi (SETFA) [2]; applied at 1000 g/h) | PRE Application ECHCG, percentage damage (five point scale) ([3]; applied at 1000 g/h) | PRE Application SOLNI, percentage damage (five point scale) (Solanum nigrum (SOLNI) [4]; applied at 1000 g/h) | PRE Application AMARE, percentage damage (five point scale) ([5]; applied at 1000 g/h) | PRE Application IPOHE, percentage damage (five point scale) ([6]; applied at 1000 g/h) | POST Application ALOMY, percentage damage (five point scale) ([7]; applied at 1000 g/h) | POST Application SETFA, percentage damage (five point scale) (Setaria faberi (SETFA) [8]; applied at 1000 g/h) | POST Application ECHCG, percentage damage (five point scale) ([9]; applied at 1000 g/h) | POST Application SOLNI, percentage damage (five point scale) (Solanum nigrum (SOLNI) [10]; applied at 1000 g/h) | POST Application AMARE, percentage damage (five point scale) ([11]; applied at 1000 g/h) | POST Application IPOHE, percentage damage (five point scale) ([12]; applied at 1000 g/h) | further results |
| --- | --- | --- | --- | --- | --- | --- | --- | --- | --- | --- | --- | --- | --- |
| Cn1nnnc1NC(=O)c1nn(C)c(=O)n(CCCC(F)(F)F)c1=O [Compound 1.090] | 5 (5=80-100%) | 5 (5=80-100%) | 5 (5=80-100%) | 5 (5=80-100%) | 5 (5=80-100%) | 5 (5=80-100%) | 5 (5=80-100%) | 5 (5=80-100%) | 5 (5=80-100%) | 5 (5=80-100%) | 5 (5=80-100%) | 5 (5=80-100%) | – |
| C=C(C)Cn1c(=O)c(C(=O)Nc2nnnn2C)nn(C)c1=O [Compound 1.091] | – | – | – | – | – | – | – | – | – | – | – | – | PRE Application ALOMY, percentage damage (five point scale) ([1]; applied at 250 g/ha): 4 (4=60-79%); PRE Application SETFA, percentage damage (five point scale) (Setaria faberi (SETFA) [2]; applied at 250 g/ha): 4 (4=60-79%); PRE Application ECHCG, percentage damage (five point scale) ([3]; applied at 250 g/ha): 5 (5=80-100%); PRE Application SOLNI, percentage damage (five point scale) (Solanum nigrum (SOLNI) [4]; applied at 250 g/ha): 5 (5=80-100%); PRE Application AMARE, percentage damage (five point scale) ([5]; applied at 250 g/ha): 5 (5=80-100%); PRE Application IPOHE, percentage damage (five point scale) ([6]; applied at 250 g/ha): 4 (4=60-79%); POST Application ALOMY, percentage damage (five point scale) ([7]; applied at 250 g/ha): 4 (4=60-79%); POST Application SETFA, percentage damage (five point scale) (Setaria faberi (SETFA) [8]; applied at 250 g/ha): 4 (4=60-79%); POST Application ECHCG, percentage damage (five point scale) ([9]; applied at 250 g/ha): 5 (5=80-100%); POST Application SOLNI, percentage damage (five point scale) (Solanum nigrum (SOLNI) [10]; applied at 250 g/ha): 5 (5=80-100%); POST Application AMARE, percentage damage (five point scale) ([11]; applied at 250 g/ha): 5 (5=80-100%); POST Application IPOHE, percentage damage (five point scale) ([12]; applied at 250 g/ha): 5 (5=80-100%) |
| CC#CCn1c(=O)c(C(=O)Nc2nnnn2C)nn(C)c1=O [Compound 1.092] | 4 (4=60-79%) | 5 (5=80-100%) | 5 (5=80-100%) | 5 (5=80-100%) | 5 (5=80-100%) | 5 (5=80-100%) | 4 (4=60-79%) | 5 (5=80-100%) | 5 (5=80-100%) | 5 (5=80-100%) | 5 (5=80-100%) | 5 (5=80-100%) | – |
| Cn1nnnc1NC(=O)c1nn(C)c(=O)n(CC2CC2)c1=O [Compound 1.093] | 5 (5=80-100%) | 5 (5=80-100%) | 5 (5=80-100%) | 5 (5=80-100%) | 5 (5=80-100%) | 5 (5=80-100%) | 5 (5=80-100%) | 5 (5=80-100%) | 5 (5=80-100%) | 5 (5=80-100%) | 5 (5=80-100%) | 5 (5=80-100%) | – |
| Cn1nnnc1NC(=O)c1nn(C)c(=O)n(CCC(F)(F)F)c1=O [Compound 1.094] | 5 (5=80-100%) | 5 (5=80-100%) | 5 (5=80-100%) | 5 (5=80-100%) | 5 (5=80-100%) | 5 (5=80-100%) | 5 (5=80-100%) | 5 (5=80-100%) | 5 (5=80-100%) | 5 (5=80-100%) | 5 (5=80-100%) | 5 (5=80-100%) | – |
| Cn1nnnc1NC(=O)c1nn(C)c(=O)n(CC2CCOCC2)c1=O [Compound 1.095] | 5 (5=80-100%) | 5 (5=80-100%) | 5 (5=80-100%) | 5 (5=80-100%) | 5 (5=80-100%) | 5 (5=80-100%) | 5 (5=80-100%) | 5 (5=80-100%) | 5 (5=80-100%) | 5 (5=80-100%) | 5 (5=80-100%) | 5 (5=80-100%) | – |
| Cn1nnnc1NC(=O)c1nn(C)c(=O)n(CC2CCCCC2)c1=O [Compound 1.096] | 5 (5=80-100%) | 4 (4=60-79%) | 5 (5=80-100%) | 5 (5=80-100%) | 5 (5=80-100%) | 5 (5=80-100%) | 4 (4=60-79%) | 5 (5=80-100%) | 5 (5=80-100%) | 5 (5=80-100%) | 5 (5=80-100%) | 5 (5=80-100%) | – |
| Cn1ncnc1OC(=O)c1cn(C)c(=O)n(-c2cccc(F)c2)c1=O [Compound 2.001] | 1 (1=0-19%) | 1 (1=0-19%) | 1 (1=0-19%) | 1 (1=0-19%) | 1 (1=0-19%) | 1 (1=0-19%) | 1 (1=0-19%) | 1 (1=0-19%) | 1 (1=0-19%) | 4 (4=60-79%) | 4 (4=60-79%) | 1 (1=0-19%) | – |
| Cn1ncnc1NC(=O)c1cn(C)c(=O)n(-c2ccccc2)c1=O [Compound 2.003] | 1 (1=0-19%) | 3 (3=40-59%) | 1 (1=0-19%) | 4 (4=60-79%) | 2 (2=20-39%) | 5 (5=80-100%) | 1 (1=0-19%) | 1 (1=0-19%) | 1 (1=0-19%) | 2 (2=20-39%) | 1 (1=0-19%) | 2 (2=20-39%) | – |
| CCn1nnnc1NC(=O)c1cn(C)c(=O)n(-c2cccc(F)c2)c1=O [Compound 4.003] | 2 (2=20-39%) | 1 (1=0-19%) | 1 (1=0-19%) | 4 (4=60-79%) | 5 (5=80-100%) | 3 (3=40-59%) | 2 (2=20-39%) | 1 (1=0-19%) | 1 (1=0-19%) | 5 (5=80-100%) | 5 (5=80-100%) | 2 (2=20-39%) | – |
